Data: PubChem BioAssay (NCI)
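At the GI50, growth is halved. TGI: concentration producing complete growth inhibition.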

Tests used:
Assay in all cases: inhibition of tumour cell growth, NCI panel, 384-well format
MOLT-4 leukemia = tested on: MOLT-4 leukemia
PC-3 prostate = tested on: PC-3 prostate
SK-OV-3 ovarian = tested on: SK-OV-3 ovarian
NCI-H23 lung = tested on: NCI-H23 lung
U251 glioblastoma = tested on: U251 glioblastoma
786-0 renal = tested on: 786-0 renal
KM12 colon = tested on: KM12 colon
COLO 205 colon = tested on: COLO 205 colon
CCRF-CEM leukemia = tested on: CCRF-CEM leukemia
SNB-75 CNS = tested on: SNB-75 CNS
HS 578T breast = tested on: HS 578T breast
NCI-H322M lung = tested on: NCI-H322M lung
SF-539 CNS = tested on: SF-539 CNS
OVCAR-8 ovarian = tested on: OVCAR-8 ovarian
HCC-2998 colon = tested on: HCC-2998 colon
SW-620 colon = tested on: SW-620 colon
A549 NSCLC = tested on: A549 NSCLC
SNB-19 CNS = tested on: SNB-19 CNS
NCI/ADR-RES ovarian = tested on: NCI/ADR-RES ovarian
RXF 393 renal = tested on: RXF 393 renal
SF-295 CNS = tested on: SF-295 CNS
NCI-H226 lung = tested on: NCI-H226 lung
K-562 leukemia = tested on: K-562 leukemia
HT29 colon = tested on: HT29 colon
SR leukemia = tested on: SR leukemia
M14 melanoma = tested on: M14 melanoma
LOX IMVI melanoma = tested on: LOX IMVI melanoma
UO-31 renal = tested on: UO-31 renal
A498 renal = tested on: A498 renal
MCF7 breast = tested on: MCF7 breast
SK-MEL-5 melanoma = tested on: SK-MEL-5 melanoma
NCI-H460 NSCLC = tested on: NCI-H460 NSCLC
ACHN renal = tested on: ACHN renal
SK-MEL-28 melanoma = tested on: SK-MEL-28 melanoma
HCT-15 colon = tested on: HCT-15 colon
TK-10 renal = tested on: TK-10 renal
MALME-3M melanoma = tested on: MALME-3M melanoma
NCI-H522 lung = tested on: NCI-H522 lung
MDA-MB-468 breast = tested on: MDA-MB-468 breast
OVCAR-3 ovarian = tested on: OVCAR-3 ovarian
T-47D breast = tested on: T-47D breast
OVCAR-4 ovarian = tested on: OVCAR-4 ovarian
MDA-MB-231 breast = tested on: MDA-MB-231 breast
CAKI-1 renal = tested on: CAKI-1 renal
IGROV1 ovarian = tested on: IGROV1 ovarian
SF-268 CNS = tested on: SF-268 CNS
HL-60(TB) leukemia = tested on: HL-60(TB) leukemia
EKVX NSCLC = tested on: EKVX NSCLC
UACC-257 melanoma = tested on: UACC-257 melanoma
BT-549 breast = tested on: BT-549 breast
OVCAR-5 ovarian = tested on: OVCAR-5 ovarian
SN12C renal = tested on: SN12C renal
HCT-116 colon = tested on: HCT-116 colon
RPMI-8226 leukemia = tested on: RPMI-8226 leukemia
HOP-62 NSCLC = tested on: HOP-62 NSCLC
DU-145 prostate = tested on: DU-145 prostate
HOP-92 NSCLC = tested on: HOP-92 NSCLC
MDA-MB-435 melanoma = tested on: MDA-MB-435 melanoma

In the case of CC(C)(C)c1[nH]cnc1/C=c1\[nH]c(=O)/c(=C/c2ccccc2)[nH]c1=O, the GI50 (MOLT-4 leukemia) was < 10 nM, the TGI (MOLT-4 leukemia) was < 10 nM and the GI50 (PC-3 prostate) was < 10 nM. For the same compound, the TGI (PC-3 prostate) was 14900 nM, the GI50 (SK-OV-3 ovarian) was < 10 nM and the TGI (SK-OV-3 ovarian) was 746 nM. The GI50 (NCI-H23 lung) was < 10 nM, the TGI (NCI-H23 lung) was < 10 nM and the GI50 (U251 glioblastoma) was < 10 nM. For the same compound, the TGI (U251 glioblastoma) was 16.8 nM, the GI50 ([…]-0 renal) was < 10 nM and the TGI (786-0 renal) was 27 nM. For the same compound, the GI50 (KM12 colon) was < 10 nM, the TGI (KM12 colon) was 1250 nM and the GI50 (COLO 205 colon) was < 10 nM. For the same compound, the TGI (COLO 205 colon) was < 10 nM, the GI50 (CCRF-CEM leukemia) was < 10 nM and the TGI (CCRF-CEM leukemia) was < 10 nM. For the same compound, the GI50 (SNB-75 CNS) was < 10 nM, the TGI (SNB-75 CNS) was 78.3 nM and the GI50 (HS 578T breast) was < 10 nM. For the same compound, the TGI (HS 578T breast) was < 10 nM, the GI50 (NCI-H322M lung) was < 10 nM and the TGI (NCI-H322M lung) was 15200 nM. The GI50 (SF-539 CNS) was < 10 nM, the TGI (SF-539 CNS) was < 10 nM and the GI50 (OVCAR-8 ovarian) was < 10 nM. For the same compound, the TGI (OVCAR-8 ovarian) was 15.9 nM, the GI50 (HCC-2998 colon) was < 10 nM and the TGI (HCC-2998 colon) was 22.1 nM. For the same compound, the GI50 (SW-620 colon) was < 10 nM, the TGI (SW-620 colon) was 17500 nM and the GI50 (A549 NSCLC) was < 10 nM. The TGI (A549 NSCLC) was 16700 nM, the GI50 (SNB-19 CNS) was < 10 nM and the TGI (SNB-19 CNS) was 11000 nM. For the same compound, the GI50 (NCI/ADR-RES ovarian) was < 10 nM, the TGI (NCI/ADR-RES ovarian) was < 10 nM and the GI50 (RXF 393 renal) was < 10 nM. For the same compound, the TGI (RXF 393 renal) was < 10 nM, the GI50 (SF-295 CNS) was < 10 nM and the TGI (SF-295 CNS) was < 10 nM. The GI50 (NCI-H226 lung) was < 10 nM, the TGI (NCI-H226 lung) was 26.2 nM and the GI50 (K-562 leukemia) was < 10 nM. For the same compound, the TGI (K-562 leukemia) was < 10 nM, the GI50 (HT29 colon) was < 10 nM and the TGI (HT29 colon) was 12900 nM. For the same compound, the GI50 (SR leukemia) was < 10 nM, the TGI (SR leukemia) was < 10 nM and the GI50 (M14 melanoma) was < 10 nM. The TGI (M14 melanoma) was < 10 nM, the GI50 (LOX IMVI melanoma) was < 10 nM and the TGI (LOX IMVI melanoma) was 30.5 nM. The GI50 (UO-31 renal) was < 10 nM, the TGI (UO-31 renal) was 14500 nM and the GI50 (A498 renal) was < 10 nM. For the same compound, the TGI (A498 renal) was 265 nM, the GI50 (MCF7 breast) was < 10 nM and the TGI (MCF7 breast) was 10300 nM. The GI50 (SK-MEL-5 melanoma) was < 10 nM, the TGI (SK-MEL-5 melanoma) was < 10 nM and the GI50 (NCI-H460 NSCLC) was < 10 nM. For the same compound, the TGI (NCI-H460 NSCLC) was < 10 nM, the GI50 (ACHN renal) was < 10 nM and the TGI (ACHN renal) was 13300 nM. The GI50 (SK-MEL-28 melanoma) was 1750 nM, the TGI (SK-MEL-28 melanoma) was 20400 nM and the GI50 (HCT-15 colon) was < 10 nM. The TGI (HCT-15 colon) was 22.5 nM, the GI50 (TK-10 renal) was < 10 nM and the TGI (TK-10 renal) was 16400 nM. For the same compound, the GI50 (MALME-3M melanoma) was < 10 nM, the TGI (MALME-3M melanoma) was 16500 nM and the GI50 (NCI-H522 lung) was < 10 nM. The TGI (NCI-H522 lung) was < 10 nM, the GI50 (MDA-MB-468 breast) was 10.3 nM and the TGI (MDA-MB-468 breast) was 24.6 nM. For the same compound, the GI50 (OVCAR-3 ovarian) was < 10 nM, the TGI (OVCAR-3 ovarian) was < 10 nM and the GI50 (T-47D breast) was < 10 nM. For the same compound, the TGI (T-47D breast) was 7150 nM, the GI50 (OVCAR-4 ovarian) was < 10 nM and the TGI (OVCAR-4 ovarian) was 3720 nM. For the same compound, the GI50 (MDA-MB-231 breast) was 10.7 nM, the TGI (MDA-MB-231 breast) was 19700 nM and the GI50 (CAKI-1 renal) was < 10 nM. For the same compound, the TGI (CAKI-1 renal) was 13000 nM, the GI50 (IGROV1 ovarian) was < 10 nM and the TGI (IGROV1 ovarian) was 10200 nM. The GI50 (SF-268 CNS) was < 10 nM, the TGI (SF-268 CNS) was 49.1 nM and the GI50 (HL-60(TB) leukemia) was < 10 nM. For the same compound, the TGI (HL-60(TB) leukemia) was < 10 nM, the GI50 (EKVX NSCLC) was < 10 nM and the TGI (EKVX NSCLC) was 13000 nM. For the same compound, the GI50 (UACC-257 melanoma) was < 10 nM, the TGI (UACC-257 melanoma) was 18800 nM and the GI50 (BT-549 breast) was < 10 nM. The TGI (BT-549 breast) was 25.5 nM, the GI50 (OVCAR-5 ovarian) was 10900 nM and the TGI (OVCAR-5 ovarian) was 32900 nM. For the same compound, the GI50 (SN12C renal) was < 10 nM, the TGI (SN12C renal) was 4230 nM and the GI50 (HCT-116 colon) was < 10 nM. The TGI (HCT-116 colon) was 39.3 nM, the GI50 (RPMI-8226 leukemia) was < 10 nM and the TGI (RPMI-8226 leukemia) was < 10 nM. The GI50 (HOP-62 NSCLC) was < 10 nM, the TGI (HOP-62 NSCLC) was 304 nM and the GI50 (DU-145 prostate) was < 10 nM. The TGI (DU-145 prostate) was 21.9 nM, the GI50 (HOP-92 NSCLC) was < 10 nM and the TGI (HOP-92 NSCLC) was 2810 nM. For the same compound, the GI50 (MDA-MB-435 melanoma) was < 10 nM and the TGI (MDA-MB-435 melanoma) was < 10 nM.
